Series [1] has as its target Neuronal acetylcholine receptor; alpha9/alpha10 (Homo sapiens) (UniProt Q9UGM1+Q9GZZ6). Kind of series: Antagonist activity at human alpha9alpha10 nAChR expressed in acetylcholine-induced Xenopus laevis oocytes assessed as inhibition of acetylcholine-induced current at 10 nM at -80 mV holding potential incubated for 5 mins by two electrode voltage-clamp assay relative to control. Type of series: cell-based. The conditions noted are these: Oocyte, filed as antagonist. (In general: Two-electrode voltage clamp is typically applied to oocytes expressing channels or transporters.)

Series [2] is described as follows: Stability in human serum assessed as parent compound remaining incubated measured upto 48 hrs by RP-HPLC analysis. In kind it is ADME, cell-free.
Series [3] has as its target T1, Neuronal acetylcholine receptor; alpha9/alpha10 (Homo sapiens, UniProt Q9GZZ6+Q9UGM1). In words: Antagonist activity at human alpha9alpha10 nAChR expressed in acetylcholine-induced Xenopus laevis oocytes assessed as inhibition of acetylcholine-induced current at -80 mV holding potential incubated for 5 mins by two electrode voltage-clamp assay. Type of series: cell-based, Oocyte.

A short description of series [4]: Stability in human serum assessed as parent compound remaining incubated at 24 hrs by RP-HPLC analysis. In kind it is ADME, cell-free. The note with it: for remaining at 24 h: human serum, read-out: Stability; for Stability: serum, 24 h.
Series [5] is described as follows: Antagonist activity at rat alpha9alpha10 nAChR expressed in acetylcholine-induced Xenopus laevis oocytes assessed as inhibition of acetylcholine-induced current at -80 mV holding potential incubated for 5 mins by two electrode voltage-clamp assay. In kind it is cell-based. The conditions noted are these: Oocyte.
A short description of series [6]: Stability in human serum assessed as parent compound remaining incubated at 48 hrs by RP-HPLC analysis. The conditions noted are these: read-out: Stability. Type of series: ADME, cell-free.
Series [7] concerns the target T1, Neuronal acetylcholine receptor; alpha9/alpha10. Kind of series: Inhibition of human alpha9alpha10 nAChR assessed as reduction in acetylcholine-induced current incubated for 5 mins by two electrode voltage-clamp assay. In kind it is protein-complex assay.
For series [8], the target named is Neuronal acetylcholine receptor; alpha3/beta2 (Homo sapiens, UniProt P17787+P32297). In words: Inhibition of human alpha3beta2 nAChR assessed as reduction in acetylcholine-induced current incubated for 5 mins by two electrode voltage-clamp assay. In kind it is protein-complex assay.
Series [9] concerns Rattus norvegicus. In words: Analgesic activity in Oxaliplatin-induced cold allodynia SPF male Sprague-Dawley rat assessed as increase in latency at 200 microg/kg, iv measured at 72 hrs by cold plate test. The conditions noted are these: dose 200.0 µg/kg. In kind it is functional, organism-based.
Series [10] is described as follows: Stability in human serum assessed as half life incubated upto 48 hrs by RP-HPLC analysis. Type of series: ADME, cell-free.
In series [11] the test system is Rattus norvegicus. In words: Analgesic activity in Oxaliplatin-induced cold allodynia SPF male Sprague-Dawley rat assessed as reduction in pain-relieving effect at 500 microg/kg, iv measured at 1 to 24 hrs. Type of series: functional, organism-based. The note with it: dose 500.0 µg/kg, time 1-24 hrs.
The target of series [12] is Neuronal acetylcholine receptor subunit alpha-7 (Homo sapiens, UniProt P36544). In words: Inhibition of human alpha7 nAChR assessed as reduction in acetylcholine-induced current incubated for 5 mins by two electrode voltage-clamp assay.
For series [13], the species on record is Homo sapiens. In words: Inhibition of human alpha1beta1deltagamma nAChR assessed as reduction in acetylcholine-induced current at 10 to 100 nM incubated for 5 mins by two electrode voltage-clamp assay relative to control. The note with it: dose 10-100 nM.
Series [14] deals with T2, Neuronal acetylcholine receptor; alpha4/beta4 (Homo sapiens) (UniProt P30926+P43681). Kind of series: Inhibition of human alpha4beta4 nAChR assessed as reduction in acetylcholine-induced current at 10 nM incubated for 5 mins by two electrode voltage-clamp assay. In kind it is protein-complex assay.
Series [15] concerns Rattus norvegicus. Kind of series: Analgesic activity in Oxaliplatin-induced cold allodynia SPF male Sprague-Dawley rat assessed as reduction in pain-relieving effect at 500 microg/kg, iv measured at 24 to 48 hrs. Type of series: functional, organism-based. The note with it: dose 500.0 µg/kg, time 24-48 hrs.
Series [16] concerns Rattus norvegicus. Kind of series: Analgesic activity in Oxaliplatin-induced cold allodynia SPF male Sprague-Dawley rat assessed as increase in latency at 500 microg/kg, iv measured at 72 hrs by cold plate test. The note with it: dose 500.0 µg/kg. In kind it is functional, organism-based.
Series [17] can be described thus: Stability in human serum assessed as half life incubated upto 192 hrs by RP-HPLC analysis. In kind it is ADME, cell-free.
Series [18] deals with Rattus norvegicus. Kind of series: Analgesic activity in Oxaliplatin-induced cold allodynia iv dosed SPF male Sprague-Dawley rat assessed as reduction in pain-relieving effect measured at 72 hrs. The conditions noted are these: dose 500.0 µg/kg. In kind it is functional, organism-based.
The target in series [19] is Neuronal acetylcholine receptor; alpha3/beta4 (Homo sapiens) (UniProt P30926+P32297). In words: Inhibition of human alpha3beta4 nAChR assessed as reduction in acetylcholine-induced current at 10 to 100 nM incubated for 5 mins by two electrode voltage-clamp assay relative to control. In kind it is protein-complex assay. The conditions noted are these: dose 10-100 nM.

For series [20], the species on record is Homo sapiens. In words: Inhibition of human alpha1beta1epsilondelta nAChR assessed as reduction in acetylcholine-induced current at 10 to 100 nM incubated for 5 mins by two electrode voltage-clamp assay relative to control. The conditions noted are these: dose 10-100 nM.
Series [21] concerns the target T2, Neuronal acetylcholine receptor; alpha4/beta4 (Homo sapiens). In words: Inhibition of human alpha4beta4 nAChR assessed as reduction in acetylcholine-induced current at 10 to 100 nM incubated for 5 mins by two electrode voltage-clamp assay relative to control. The note with it: dose 10-100 nM. In kind it is protein-complex assay.
The test system of series [22] is Rattus norvegicus. In words: Analgesic activity in Oxaliplatin-induced cold allodynia SPF male Sprague-Dawley rat assessed as latency time at 500 microg/kg, iv measured at 48 hrs by cold plate test. In kind it is functional. The note with it: dose 500 µg/kg.
Series [23] has as its system Rattus norvegicus. In words: Analgesic activity in Oxaliplatin-induced cold allodynia SPF male Sprague-Dawley rat assessed as reduction in pain-relieving effect by measuring acetone response score at 200 microg/kg, iv measured at 48 hrs. In kind it is functional, organism-based. The note with it: dose 200.0 µg/kg.
The subject of series [24] is Rattus norvegicus. In words: Analgesic activity in Oxaliplatin-induced cold allodynia SPF male Sprague-Dawley rat assessed as reduction in pain-relieving effect by measuring acetone response score at 50 microg/kg, iv measured at 48 hrs. Type of series: functional, organism-based. The conditions noted are these: dose 50.0 µg/kg.
The target of series [25] is T2, Neuronal acetylcholine receptor; alpha4/beta4 (Homo sapiens). In words: Inhibition of human alpha4beta4 nAChR assessed as reduction in acetylcholine-induced current at 100 nM incubated for 5 mins by two electrode voltage-clamp assay relative to control. In kind it is protein-complex assay.

SMILES strings stand for the structures. The source made the active and inactive calls. No cut-off for these calls is given here. Residues, ends and D or L forms follow the SMILES beside them. Some results are limits rather than exact numbers.

T1 sequence (Q9UGM1 whole entry): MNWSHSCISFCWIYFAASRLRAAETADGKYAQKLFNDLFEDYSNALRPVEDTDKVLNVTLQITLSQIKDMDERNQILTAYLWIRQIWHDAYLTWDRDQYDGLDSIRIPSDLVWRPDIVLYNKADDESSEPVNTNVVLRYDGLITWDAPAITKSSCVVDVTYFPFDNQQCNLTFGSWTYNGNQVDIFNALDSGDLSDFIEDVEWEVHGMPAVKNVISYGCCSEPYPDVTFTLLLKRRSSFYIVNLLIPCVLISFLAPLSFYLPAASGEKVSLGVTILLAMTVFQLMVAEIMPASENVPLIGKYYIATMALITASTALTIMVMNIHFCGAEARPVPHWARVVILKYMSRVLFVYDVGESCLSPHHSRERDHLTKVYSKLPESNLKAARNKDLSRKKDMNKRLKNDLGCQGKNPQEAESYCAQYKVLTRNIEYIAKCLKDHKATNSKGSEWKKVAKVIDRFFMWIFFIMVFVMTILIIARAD
T1 sequence (Q9GZZ6 whole entry): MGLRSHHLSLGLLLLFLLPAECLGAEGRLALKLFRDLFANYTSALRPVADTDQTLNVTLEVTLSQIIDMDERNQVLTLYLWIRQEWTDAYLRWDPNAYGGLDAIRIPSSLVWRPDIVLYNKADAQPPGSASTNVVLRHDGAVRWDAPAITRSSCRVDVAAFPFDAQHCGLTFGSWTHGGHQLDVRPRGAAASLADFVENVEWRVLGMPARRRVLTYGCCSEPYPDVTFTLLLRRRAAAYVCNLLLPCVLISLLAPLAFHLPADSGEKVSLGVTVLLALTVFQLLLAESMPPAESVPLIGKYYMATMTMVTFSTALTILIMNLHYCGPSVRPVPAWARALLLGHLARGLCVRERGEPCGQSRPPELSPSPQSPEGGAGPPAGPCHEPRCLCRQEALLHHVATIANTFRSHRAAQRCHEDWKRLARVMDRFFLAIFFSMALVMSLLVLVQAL
Chain of Neuronal acetylcholine receptor subunit alpha-7 (P36544 whole entry): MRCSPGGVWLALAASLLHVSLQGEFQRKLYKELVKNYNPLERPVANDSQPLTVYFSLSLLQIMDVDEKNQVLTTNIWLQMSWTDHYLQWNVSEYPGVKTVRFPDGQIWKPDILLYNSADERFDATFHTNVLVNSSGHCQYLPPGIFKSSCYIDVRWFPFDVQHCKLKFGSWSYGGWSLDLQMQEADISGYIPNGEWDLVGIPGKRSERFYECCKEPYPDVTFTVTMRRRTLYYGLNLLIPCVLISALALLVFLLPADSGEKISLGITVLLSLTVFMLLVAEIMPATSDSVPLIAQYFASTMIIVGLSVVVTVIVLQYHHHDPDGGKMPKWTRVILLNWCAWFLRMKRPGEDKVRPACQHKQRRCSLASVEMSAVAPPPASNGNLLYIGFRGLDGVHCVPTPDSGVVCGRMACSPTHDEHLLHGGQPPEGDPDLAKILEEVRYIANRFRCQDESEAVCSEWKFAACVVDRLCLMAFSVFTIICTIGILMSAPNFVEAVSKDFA
Chain of Neuronal acetylcholine receptor; alpha3/beta2 (P17787 whole entry): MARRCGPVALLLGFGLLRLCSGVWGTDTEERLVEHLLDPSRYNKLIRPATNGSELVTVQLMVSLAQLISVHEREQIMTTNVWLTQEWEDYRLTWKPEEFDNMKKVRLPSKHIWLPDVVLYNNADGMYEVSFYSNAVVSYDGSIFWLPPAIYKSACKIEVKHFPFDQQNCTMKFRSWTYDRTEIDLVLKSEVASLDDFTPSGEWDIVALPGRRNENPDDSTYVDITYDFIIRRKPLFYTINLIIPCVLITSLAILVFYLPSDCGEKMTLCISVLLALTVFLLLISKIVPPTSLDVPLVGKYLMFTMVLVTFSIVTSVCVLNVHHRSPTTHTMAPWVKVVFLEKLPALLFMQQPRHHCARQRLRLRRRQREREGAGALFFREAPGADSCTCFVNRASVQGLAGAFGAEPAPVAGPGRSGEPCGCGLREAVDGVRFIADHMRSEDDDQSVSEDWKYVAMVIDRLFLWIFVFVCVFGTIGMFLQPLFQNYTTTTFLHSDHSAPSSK
Chain of Neuronal acetylcholine receptor; alpha3/beta2 (P32297 whole entry): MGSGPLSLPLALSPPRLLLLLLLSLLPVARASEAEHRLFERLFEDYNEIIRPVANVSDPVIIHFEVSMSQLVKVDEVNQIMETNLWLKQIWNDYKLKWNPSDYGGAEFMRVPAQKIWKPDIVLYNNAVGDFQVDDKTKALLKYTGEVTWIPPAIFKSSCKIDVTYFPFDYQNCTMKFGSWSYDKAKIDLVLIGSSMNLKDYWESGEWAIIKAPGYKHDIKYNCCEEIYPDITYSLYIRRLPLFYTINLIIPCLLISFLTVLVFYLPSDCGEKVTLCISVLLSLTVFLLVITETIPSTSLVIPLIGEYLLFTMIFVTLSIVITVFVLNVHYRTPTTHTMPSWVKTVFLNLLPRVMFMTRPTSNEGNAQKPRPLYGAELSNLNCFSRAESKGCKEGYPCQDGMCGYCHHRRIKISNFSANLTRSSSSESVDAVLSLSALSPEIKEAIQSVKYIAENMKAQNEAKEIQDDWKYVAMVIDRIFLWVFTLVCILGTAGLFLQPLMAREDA

For `CC[C@H](C)[C@@H]1NC(=O)[C@H](CC(=O)O)NC(=O)[C@@H]2CCCN2C(=O)[C@H](CC(N)=O)NC(=O)[C@H](CC(N)=O)NC(=O)[C@H](C(C)C)NC(=O)[C@H](CO)NC(=O)[C@@H]2CSSC[C@@H]3NC(=O)CNC(=O)[C@@H](N)CC(=O)NCC[C@@H](C(N)=O)NC(=O)[C@H](CSSC[C@H](NC3=O)C(=O)N[C@@H](CN)C(=O)N[C@@H](Cc3cnc[nH]3)C(=O)N3CCC[C@H]3C(=O)N[C@@H](C)C(=O)N2)NC1=O` (HELM PEPTIDE1{D.G.C.C.[NC[C@H](N[*:1])C(=O)[*:2]].H.P.A.C.S.V.N.N.P.D.I.C.[Dab].[am]}$PEPTIDE1,PEPTIDE1,1:R3-18:R3|PEPTIDE1,PEPTIDE1,3:R3-9:R3|PEPTIDE1,PEPTIDE1,4:R3-17:R3$$$V2.0), the inhibition (usually how much of the control response was suppressed) in [1] amounted to 90%. Moreover, the Stability result in series [2] was “Stable”. For the same compound, the IC50 (as a rule, the concentration that inhibits the measured activity by half) in series [3] was determined as 3.3 nM. Besides, the remaining at 24 h in [4] was 64.6%.
Consider `CC[C@H](C)[C@@H]1NC(=O)[C@H](CC(=O)O)NC(=O)[C@@H]2CCCN2C(=O)[C@H](CC(N)=O)NC(=O)[C@H](CC(N)=O)NC(=O)[C@H](C(C)C)NC(=O)[C@H](CO)NC(=O)[C@@H]2CSSC[C@@H]3NC(=O)CNC(=O)[C@@H](N)CC(=O)NC[C@@H](C(N)=O)NC(=O)[C@H](CSSC[C@H](NC3=O)C(=O)N[C@@H](CN)C(=O)N[C@@H](Cc3cnc[nH]3)C(=O)N3CCC[C@H]3C(=O)N[C@@H](C)C(=O)N2)NC1=O` (HELM PEPTIDE1{D.G.C.C.[NC[C@H](N[*:1])C(=O)[*:2]].H.P.A.C.S.V.N.N.P.D.I.C.[O=C([C@H](CN[*:3])N[*:1])[*:2]].[am]}$PEPTIDE1,PEPTIDE1,1:R3-18:R3|PEPTIDE1,PEPTIDE1,3:R3-9:R3|PEPTIDE1,PEPTIDE1,4:R3-17:R3$$$V2.0), for which the inhibition in series [1] was found to be 90%. Moreover, in series [2], the Stability result was “Stable”. The IC50 in series [3] is 3.2 nM. Also, in series [4], the remaining at 24 h was determined as 57.3% and the Stability was 72.4%.
Take `CC[C@H](C)[C@@H]1NC(=O)[C@H](CC(=O)O)NC(=O)[C@@H]2CCCN2C(=O)[C@H](CC(N)=O)NC(=O)[C@H](CC(N)=O)NC(=O)[C@H](C(C)C)NC(=O)[C@H](CO)NC(=O)[C@@H]2CSSC[C@H](NC(=O)CN)C(=O)N[C@H](C(=O)N[C@@H](CN)C(=O)N[C@@H](Cc3cnc[nH]3)C(=O)N3CCC[C@H]3C(=O)N[C@@H](C)C(=O)N2)C(C)(C)SSC[C@@H](C(N)=O)NC1=O` (HELM PEPTIDE1{G.C.[Pen].[NC[C@H](N[*:1])C(=O)[*:2]].H.P.A.C.S.V.N.N.P.D.I.C.[am]}$PEPTIDE1,PEPTIDE1,2:R3-8:R3|PEPTIDE1,PEPTIDE1,3:R3-16:R3$$$V2.0): the 50% inhibitory concentration (IC50) worked out at 2.7 nM in series [5] and 9.9 nM in series [3]. The inhibition in series [1] was 50%. Also, the remaining at 48 h in series [6] came to 60%. Moreover, in series [4], the remaining at 24 h was determined as 80%.
Take `CC[C@H](C)[C@H](NC(=O)[C@H](CC(=O)O)NC(=O)[C@@H]1CCCN1C(=O)[C@H](CC(N)=O)NC(=O)[C@H](CC(N)=O)NC(=O)[C@@H](NC(=O)[C@H](CO)NC(=O)[C@H](CS)NC(=O)[C@H](C)NC(=O)[C@@H]1CCCN1C(=O)[C@H](Cc1cnc[nH]1)NC(=O)[C@H](CN)NC(=O)[C@H](CS)NC(=O)[C@H](CS)NC(=O)CN)C(C)C)C(=O)N[C@@H](CS)C(N)=O` (HELM PEPTIDE1{G.C.C.[NC[C@H](N[*:1])C(=O)[*:2]].H.P.A.C.S.V.N.N.P.D.I.C.[am]}$$$$V2.0): the 50% inhibitory concentration (IC50) in series [7] stood at 4 nM; in series [8] it was 20.6 nM; in series [3] it was 4 nM; in series [12], 206 nM. Further, the outcome in series [9] and in [11] was Active. For the same compound, the half-life (as a rule, the time in which the quantity being followed falls by half) in [10] was 26.2 h. In addition, the inhibition in [1] stood at 80%. Also, the remaining at 48 h in [6] was less than 30%. In series [4], the remaining at 24 h worked out at 58.6%. In series [4], the Stability amounted to 57.3%.
Consider `CC[C@H](C)[C@@H]1NC(=O)[C@H](CC(=O)O)NC(=O)[C@@H]2CCCN2C(=O)[C@H](CC(N)=O)NC(=O)[C@H](CC(N)=O)NC(=O)[C@H](C(C)C)NC(=O)[C@H](CO)NC(=O)[C@@H]2CSSC[C@H](NC(=O)CN)C(=O)N[C@@H](CSSC(C)(C)[C@@H](C(N)=O)NC1=O)C(=O)N[C@@H](CN)C(=O)N[C@@H](Cc1cnc[nH]1)C(=O)N1CCC[C@H]1C(=O)N[C@@H](C)C(=O)N2` (HELM PEPTIDE1{G.C.C.[NC[C@H](N[*:1])C(=O)[*:2]].H.P.A.C.S.V.N.N.P.D.I.[Pen].[am]}$PEPTIDE1,PEPTIDE1,2:R3-8:R3|PEPTIDE1,PEPTIDE1,3:R3-16:R3$$$V2.0), for which the half-inhibitory concentration (IC50) in series [7] was 4.1 nM; in series [8], 21.8 nM; in series [3] it was 4 nM; in [12] it was 133 nM. The inhibition in series [13] is less than 1%; in series [19], less than 1%; in series [20] it was less than 1%; in [21] it was less than 1%; in series [25] it was 20%. In addition, the inhibition entry in series [14] was “inactive”. Also, the result in [9], in series [15], in series [16] and in series [23] was Active. For the same compound, the half-life in series [17] was 142 h. Besides, the Activity entry in [18] was “Dose-dependent-effect”. For the same compound, the remaining at 48 h in series [6] is 85%. Besides, the Time in series [22] came to 140 s. The remaining at 24 h in series [4] is 90%. Also, in [24], the outcome was inactive.

Values taken from ChEMBL document CHEMBL6074659, “Development of an Intravenously Stable Disulfide-Rich Peptide for the Treatment of Chemotherapy-Induced Neuropathic Pain” (J Med Chem, 2024).
